In patent US8598159B2, “Therapeutic pyrazoloquinoline derivatives” (Dart Neuroscience (Cayman) Ltd., priority 2007, dated 2013):

Experiments:
GABAA receptors = experiment: Electrophysiology assay (two-electrode voltage clamp, Xenopus oocytes expressing GABAA receptors); format: cell-based; details: positive (Pos) or negative (Neg) modulation of current at GABA EC20, screening concentration of 10 μM
Method: The modulation of GABAA function is determined by changes in current as determined in an electrophysiology assay, as is detailed below.
mRNA was prepared from lyophilized plasmid pellets containing cDNA inserts encoding the specific GABAA receptor subunit. cDNAs encoding the α2, α3, and γ3 subunits were subcloned into pBluescript, SK^−. cDNAs encoding the a 1 and a 5 subunits were subcloned into prC while cDNA encoding the β2 subunit was subcloned into pcDNA1. The cDNA construct encoding the g 2s subunit is in the pGH19 expression construct. Overnight cultures of transformed DH5a bacterial cells were performed to grow sufficient quantities for maxiprep isolation of the plasmid cDNA. The resulting plasmid cDNA was linearized by digestion with an appropriate restriction enzyme that cleaves distal to the cDNA insert [XbaI (α1, β2), NotI (α3, γ2 s), SacII (α2), or ApaI (α5)]. Following digestion, plasmid cDNA was treated with proteinase K and extracted with phenol/chloroform/isoamyl alcohol, followed by ethanol precipitation. cDNA quality was assessed by agarose-gel electrophoresis (1.5% agarose gel). Samples were stored at −20° C. until use. In vitro transcription was performed with T7 RNA polymerase. mRNA was then stored at −80° C. until use. Plasmids were linearized with appropriate restriction enzymes before in vitro transcription using the Message Machine kit (Ambion, Austin, Tex.).
GABAA receptor expression in Xenopus oocytes: Following 45 min of 0.15% Tricaine anesthesia, an ovarian section containing the follicular oocytes was removed from the frog through a lateral abdominal incision. Oocytes were immediately placed in a calcium-free solution (NaCl 96 mM, MgCl2 1 mM, KCl 2 mM, Hepes 50 mM, pyruvate 2.5 mM, gentamycin 100 μg/mL, penicillin-streptomycin 50 U/mL, pH 7.4). Following 1.5-2 hour incubation in 0.2% collagenase (type II, Sigma Chemical Co., St. Louis, Mo.) at room temperature, individual Dumont stage V and VI oocytes were transferred to an incubator and maintained overnight in Barth's solution (NaCl 84 mM, NaHCO3 2.4 mM, MgSO4 0.82 mM, KCl 1 mM, Ca(NO3)2 0.33 mM, CaCl2 0.41 mM, Tris/HCl 7.5 mM, pyruvate 2.5 mM, gentamycin 50 μg/mL, penicillin-streptomycin, 100 units/mL, pH 7.4) at 18-20° C. and used for experiments 1-5 days post-injection. Oocytes were injected solution using an electronic microinjector (Drummond, Broomall, Pa.) with 50 nL of RNA containing 0.3-0.5 ng of each subunit RNA in a 1:1:2 ratio. The injected oocytes were used for experiments after 1-5 days of incubation in Barth's solution at 18-20° C.
Measurements of ion currents from oocytes expressing GABAA receptors were performed using a Warner two-electrode voltage-clamp amplifier (Warner Instruments, Inc., Foster City, Calif.) (Park-Chung, M. A., et al. (1999) Brain Res. 830: 72-87 incorporated herein in its entirety). Microelectrodes were fabricated from borosilicate glass capillaries with a programmed pipette puller (Sutter Instrument Co., CA). Microelectrode resistance was 1-3 MΩ when filled with 3 M KCl. The oocyte recording chamber was continuously perfused with ND-96 solution. Oocytes were clamped at a holding potential of −70 mV during data acquisition. The membrane current was filtered at 10 Hz and sampled at 100 Hz. Compounds were applied by a gravity-driven external perfusion system. The working volume of the recording chamber was […] and the rate of the perfusion was approximately […]. Compound application was 20-25 sec followed by a minimum of 150 sec wash. Data acquisition and external perfusion was computer controlled by custom-developed software. All experiments were performed at room temperature (22-24° C.). Dose-response data from each oocyte were fitted to the Hill equation by non-linear regression using the equation: IGABA=Emax/(1+(EC50/c)nH)
Emax is the maximum response, EC50 is the concentration producing 50% of the maximal response, nH is the Hill coefficient and c is the concentration of agonist. […]

[1] = target: GABAA central benzodiazepine receptor; experiment: Benzodiazepine binding assay ((3H)-flunitrazepam displacement); details: read-out: BZ binding assay (IC50); rat whole brain (except cerebellum), 1 nM (3H)-flunitrazepam, 60 minutes at 25° C.; 3-concentration dose response curve

EP Result (GABAA receptors) | IC50 [1] | SMILES
Pos | < 1000 nM | CC(C)N1CCN(c2cc3[nH]cc4c(=O)n(-c5ccccc5)nc-4c3cc2F)CC1 [28c, 8-Fluoro-7-(4-isopropylpiperazin-1-yl)-2-phenyl-2,5-dihydro-pyrazolo [4,3-c]quinolin-3-one]
Pos | < 1000 nM | CN1CCN(c2cc3[nH]cc4c(=O)n(-c5ccccn5)nc-4c3cc2F)CC1 [28f, 8-Fluoro-7-(4-methylpiperazin-1-yl)-2-pyridin-2-yl-2,5-dihydro-pyrazolo[4,3-c]quinolin-3-one]
Neg | < 1000 nM | CN1CCN(c2ccc3c4nn(-c5ccc(Cl)cc5)c(=O)c-4c[nH]c3c2)CC1 [14d, 2-(4-Chlorophenyl)-7-(4-methylpiperazin-1-yl)-2,5-dihydro-pyrazolo[4,3-c]quinolin-3-one]
